# Source: US20240368149A1, “ANALOGS OF XANOMELINE” (Terran Biosciences Inc., priority 2023, published 2024)
# Several values for one entry are separate records, joined by “and”; a condition that tells them apart may be missing. Identical values can stand only once.
# Columns and labels:
# Assay type in all cases: in vivo, male Sprague-Dawley (SD) rats
# [1] = Rat PK: plasma xanomeline after single subcutaneous (SC) dosing of xanomeline or xanomeline prodrugs at 1 mg/kg (Example A-1); conditions: xanomeline analyte in plasma; for AUC(0-inf): read-out: AUCINF_obs; for half-life: read-out: T½ (converted)
# Protocol: A pharmacokinetic (PK) study was performed in three male Sprague-Dawley (SD) rats following subcutaneous (SC) administration of xanomeline or test compounds (prodrugs of xanomeline) at 1 mg/kg. Parent compound (xanomeline) was measured in plasma.
# (§1) Samples were sent for method optimization and measurement of parent compound (xanomeline) via unique calibration lines and following acceptance QC's. Dose formulation concentrations were also measured, and PK parameters were determined (Cmax (ng/mL), Tmax (hr), Cl (ml/min/kg), Vdss (L/kg), t½(hr), AUC0-t (ng/mL*hr), AUC0-inf (ng/mL*hr), MRT (hr), Bioavailability (% F) where warranted) using WinNon Lin software. Data (including bioanalytical results and assay performance) were reported in a tabulated format
# • Step 1: A stock solution of the compound(s) were prepared to 1 mg/ml in DMSO • Step 2: A 10,000 ng/mL matched matrix standard was prepared using the stock solution(s) • Step 3: Calibration standards in matched matrix were prepared between 10,000 ng/ml and 0.5 ng/mL using serial dilution • Step 4: QC samples were prepared in matched matrix at 4000, 800, 400, 40 and 10 ng/mL Calibration Standards:
# • Step 1: A stock of the IS was diluted to 1 mg/ml in DMSO • Step 2: An ISY is made by diluting the stock to 10 μg/ml in DMSO • Step 3: An ISZ is made by diluting the ISY to 25 ng/ml in 0.1% formic acid in acetonitrile
# (§2) • Step 1: Add 10 μL of the standards, QCs and samples to a 96-well plate (extraction plate) • Step 2: To each standard, QC and test sample, add 100 μL of ISZ • Step 3: Sonicate for 2 min then mix the plate for approximately 2 min at 1200 rpm on a plate shaker • Step 4: Centrifuge the plate at 3000 rpm for 5 mins • Step 5: Add 50 μL 0.1% Formic acid in UP H2O to wells of a new 96-well plate • Step 6: Transfer 50 μL extracted sample to relevant position in second 96-well plate • Step 7: Mix at 1200 rpm for 2 minutes • Step 8: Heat seal and analyse on the LC-MS/MS system • Instrument: Xevo TQ-D with CTC Autosampler
# • Step 1: A stock solution of the compound(s) were prepared to 1 mg/ml in DMSO • Step 2: A 10,000 ng/mL matched matrix standard was prepared using the stock solution(s) • Step 3: A 2,000 ng/ml matched matrix stock dilution was made from the 10,000 ng/ml stock dilution • Step 4: Standards were prepared at a concentration of 200 ng/ml to 0.01 ng/ml in matched matrix via serial dilution from the second Stock dilution • Step 5: QC samples were prepared in matched matrix at 150, 40, 20, 4 and 0.4 ng/mL Calibration Standards:
# as §2, with “min” for “mins”, “formic” for “Formic”, “min” for “minutes”, “TQ-Absolute UHPLC-MS/MS” for “TQ-D with CTC Autosampler”
# (§3) Formulation for SC administration: For SC dosing, xanomeline and xanomeline prodrugs were formulated as solution in 10% DMSO/90% HPCD (20% in water) to a concentration of 0.5 mg free metabolite material/mL. This provided a dose of 1 mg free metabolite/kg when administered SC in 2 mL/kg dosing volumes.
# (§4) The pharmacokinetic properties of the synthesized xanomeline prodrugs after subcutaneous administration in a rat model were assessed. The concentration of xanomeline was measured in each rat at various sampling timepoints after subcutaneous administration of xanomeline or the synthesized xanomeline prodrugs to rats.
# Dose formulations were made at equivalent concentrations of active compound (xanomeline) adjusted for molecular weight of the compounds. The synthesized xanomeline prodrugs were dosed at 1 mg/kg subcutaneous (SC) nominal dose. […]
# [2] = Rat PK: plasma xanomeline after subcutaneous (SC) dosing of xanomeline, prodrugs or pamoate salts at 5 mg/kg or 3.5 mg/kg (Example A-2); conditions: parent xanomeline dosed SC; for Tmax / Cmax / AUC(0-inf) / AUC(0-t) / half-life: male, Sprague-Dawley; for AUC(0-inf): read-out: Xanomeline (SC) AUC0-inf; for AUC(0-t): read-out: Xanomeline (SC) AUC0-last; for half-life: read-out: Xanomeline (SC) T1/2 (converted)
# Protocol: as §1, with “t½ (hr),” for “t½(hr),”, “format.” for “format”
# as §3, with “of 2.5 mg free metabolite material/mL or 1.75” for “of 0.5”, “of 5” for “of 1”, “metabolite/kg or 3.5 mg free metabolite/kg, respectively,” for “metabolite/kg”
# as §4
# Dose formulations were made at equivalent concentrations of active compound (xanomeline) adjusted for molecular weight of the compounds. The synthesized xanomeline prodrugs were dosed at 5 mg/kg subcutaneous (SC) nominal dose except for xanomeline oxyisobutyl pivalate chloride prodrug and xanomeline oxypropyl pivalate chloride prodrug, which were dosed at 3.5 mg/kg subcutaneous. Nominal doses were used in PK parameter determinations. The parent compound (xanomeline) was dosed at 5 mg/kg subcutaneous (SC).
# [3] = Rat PK: plasma xanomeline after oral (PO) dosing of xanomeline or xanomeline prodrugs at 10 mg/kg (Example A-7); conditions: analyte xanomeline in plasma, 10 mg/kg of xanomeline
# Protocol: as §1, with “t½ (hr),” for “t½(hr),”, “format and QC'd.” for “format”
# Compound was dissolved in DMSO:HPCD (20% w/v in water) [10:90] 2 mg API/mL to provide doses of 10 mg API/kg when administered PO in 5 mL/kg dosing volumes.
# as §4, with “oral” for “subcutaneous”
# Dose formulations were made at equivalent concentrations of active compound (xanomeline) adjusted for molecular weight of the compounds. The synthesized xanomeline prodrugs were dosed at 10 mg/kg oral (PO) nominal dose. Nominal doses were used in PK parameter determinations. The parent compound (xanomeline) was dosed at 10 mg/kg oral (PO).
# [4] = male, Sprague-Dawley, plasma, sc, Mean of animals (Table 3)
# [5] = male, Sprague-Dawley, plasma, sc, individual animal (Table 3)
compound,measurement,setting,value
"CCCCCCOc1nsnc1C1=CCCN(C)C1 [Xanomeline, 3-hexyloxy-4-(1-methyl-3,6-dihydro-2H-pyridin-5-yl)-1,2,5-thiadiazole]",Tmax,"[1]; male, Sprague-Dawley, in vivo, individual animal (Table 3)",0.25 h
same,AUC(0-t),[1]; [4],38.3 ng·h/mL
same,AUC(0-inf),[1]; [4],42 ng·h/mL
same,Cmax,"[1]; male, Sprague-Dawley, plasma, sc, Mean of animals (Table 3), read-out: Cmax",14.4 ng/mL
same,half-life,[1]; [4],1.85 h
same,AUC(0-t),[1]; [5],40.1 ng·h/mL
same,AUC(0-inf),[1]; [5],46 ng·h/mL
same,Cmax,"[1]; male, Sprague-Dawley, plasma, sc, individual animal (Table 3), read-out: Cmax",15.9 ng/mL
same,half-life,[1]; [5],2.3 h
same,Tmax,"[1]; male, Sprague-Dawley, Mean of animals (Table 3)",0.25 h
same,Tlast,[1]; Mean of animals (Table 3),7.00 h
same,AUCINF_obs,[1]; individual animal (Table 3),42.9 ng·h/mL and 37.0 ng·h/mL
same,AUClast,[1]; individual animal (Table 3),40.0 ng·h/mL and 34.9 ng·h/mL
same,Cmax,[1]; individual animal (Table 3),15.1 ng/mL and 12.3 ng/mL
same,Tlast,[1]; individual animal (Table 3),7.00 h
same,T½,[1]; individual animal (Table 3),1.66 h and 1.58 h
same,Tmax,"[2]; in vivo, individual animals",1 h
same,Cmax,"[2]; plasma, sc, Mean",43 ng/mL
same,Tmax,"[2]; plasma, sc, Mean",0.833 h
same,AUC(0-inf),"[2]; plasma, sc, Mean",154 ng·h/mL
same,AUC(0-t),"[2]; plasma, sc, Mean",171 ng·h/mL
same,half-life,"[2]; plasma, sc, Mean",1.37 h
same,Cmax,"[2]; plasma, sc, individual animals",54.6 ng/mL
same,Tmax,"[2]; plasma, sc, individual animals",0.5 h
same,AUC(0-inf),"[2]; plasma, sc, individual animals",185 ng·h/mL
same,AUC(0-t),"[2]; plasma, sc, individual animals",180 ng·h/mL
same,half-life,"[2]; plasma, sc, individual animals",1.5 h
same,Xanomeline (SC) Tlast,[2]; Mean,37.3 h
same,Xanomeline (SC) AUC0-inf,[2]; individual animals,123 ng·h/mL
same,Xanomeline (SC) AUC0-last,[2]; individual animals,213 ng·h/mL and 121 ng·h/mL
same,Xanomeline (SC) Cmax,[2]; individual animals,30.0 ng/mL and 44.4 ng/mL
same,Xanomeline (SC) T1/2,[2]; individual animals,1.24 h
same,Xanomeline (SC) Tlast,[2]; individual animals,8.00 h (2×) and 96.0 h
xanomeline methyl hexylcarbonate chloride prodrug,Xanomeline Tlast,[3]; Mean of 3 animals,2.67 h
same,Xanomeline Tlast,"[3]; individual animal, 10 mg/kg",1.00 h and 7.00 h
